Test results taken from PubChem BioAssay AID1259407 (Chemical Carcinogenesis Research Information System (CCRIS), 2018).
The source made the active and inactive calls. How the calls were made is not given here.

Test system: CCRIS mutagenicity, Ames/micronucleus/aberration tests
Assay: CCRIS mutagenicity studies
[1] = Test System: AMES SALMONELLA TYPHIMURIUM, Strain/Indicator: TA98, Metabolic Activation: NONE, Method: PREINCUBATION
[2] = Test System: AMES SALMONELLA TYPHIMURIUM, Strain/Indicator: TA100, Metabolic Activation: NONE, Method: PREINCUBATION
[3] = Test System: AMES SALMONELLA TYPHIMURIUM, Strain/Indicator: TA1535, Metabolic Activation: NONE, Method: PREINCUBATION
[4] = Test System: AMES SALMONELLA TYPHIMURIUM, Strain/Indicator: TA98, Metabolic Activation: NONE, Method: STANDARD PLATE
[5] = Test System: AMES SALMONELLA TYPHIMURIUM, Strain/Indicator: TA98, Metabolic Activation: RAT, LIVER, S-9, AROCLOR 1254, Method: STANDARD PLATE
[6] = Test System: AMES SALMONELLA TYPHIMURIUM, Strain/Indicator: TA100, Metabolic Activation: NONE, Method: STANDARD PLATE

Measured: mutagenic call

CCCCCCCC(=O)CCc1ccc(O)c(OC)c1
inactive: [1] inactive; negative | Test System: AMES SALMONELLA TYPHIMURIUM, Strain/Indicator: TA98, Metabolic Activation: RAT LIVER S-9, SODIUM PHENOBARBITAL, Method: PREINCUBATION inactive; negative | [2] inactive; negative | Test System: AMES SALMONELLA TYPHIMURIUM, Strain/Indicator: TA100, Metabolic Activation: RAT LIVER S-9, SODIUM PHENOBARBITAL, Method: PREINCUBATION inactive; negative | [3] inactive; negative | Test System: AMES SALMONELLA TYPHIMURIUM, Strain/Indicator: TA1535, Metabolic Activation: RAT LIVER S-9, SODIUM PHENOBARBITAL, Method: PREINCUBATION inactive; negative | Test System: AMES SALMONELLA TYPHIMURIUM, Strain/Indicator: TA1538, Metabolic Activation: NONE, Method: PREINCUBATION inactive; negative | Test System: AMES SALMONELLA TYPHIMURIUM, Strain/Indicator: TA1538, Metabolic Activation: RAT LIVER S-9, SODIUM PHENOBARBITAL, Method: PREINCUBATION inactive; negative

O=C1CCC2(O)c3c(ccc(O)c31)-c1ccc(O)c3c1C2C1OC1C3=O (stereo not drawn)
active: [4] active; positive | [5] active; positive | [6] active; positive | Test System: AMES SALMONELLA TYPHIMURIUM, Strain/Indicator: TA100, Metabolic Activation: RAT, LIVER, S-9, AROCLOR 1254, Method: STANDARD PLATE active; positive | Test System: AMES SALMONELLA TYPHIMURIUM, Strain/Indicator: TA1537, Metabolic Activation: NONE, Method: STANDARD PLATE active; positive | Test System: AMES SALMONELLA TYPHIMURIUM, Strain/Indicator: TA1537, Metabolic Activation: RAT, LIVER, S-9, AROCLOR 1254, Method: STANDARD PLATE active; positive

CC(=O)c1ccc(N)cc1
inactive: Test System: E. COLI, Strain/Indicator: WP2 UVRA, Metabolic Activation: NONE, Method: FLUCTUATION TEST inactive; negative

CCOC(=O)N(N=O)C(CCC=O)c1cccnc1 (stereo not drawn)
active: [2] active; positive

O.O.O=C([O-])[C@H](O)[C@@H](O)[C@H](O)[C@H](O)CO.O=C([O-])[C@H](O)[C@@H](O)[C@H](O)[C@H](O)CO.[Fe+2]
inactive: Test System: AMES SALMONELLA TYPHIMURIUM, Strain/Indicator: TA97, Metabolic Activation: NONE, Method: PREINCUBATION inactive; negative | Test System: AMES SALMONELLA TYPHIMURIUM, Strain/Indicator: TA97, Metabolic Activation: RAT, LIVER, S-9, AROCLOR 1254, Method: PREINCUBATION inactive; negative | Test System: AMES SALMONELLA TYPHIMURIUM, Strain/Indicator: TA102, Metabolic Activation: NONE, Method: PREINCUBATION inactive; negative | Test System: AMES SALMONELLA TYPHIMURIUM, Strain/Indicator: TA102, Metabolic Activation: RAT, LIVER, S-9, AROCLOR 1254, Method: PREINCUBATION inactive; negative

CCCOS(=O)(=O)c1ccccc1
active: [6] active; positive | Test System: AMES SALMONELLA TYPHIMURIUM, Strain/Indicator: TA100, Metabolic Activation: RAT, LIVER, S-9, Method: STANDARD PLATE active; positive
inactive: End Point: IN VITRO MICRONUCLEUS, Test System: MOUSE LYMPHOMA L5178Y CELLS, Metabolic Activation: NONE inactive; negative; positive only at highly/excessively cytotoxic doses | End Point: IN VITRO MICRONUCLEUS, Test System: MOUSE LYMPHOMA L5178Y CELLS, Metabolic Activation: RAT, LIVER, S-9 inactive; negative; authors report results as weakly positive

CC(=O)Nc1cc2c(cc1O)-c1ccccc1C2
inactive: [5] inactive; negative

C=CCOCC1CO1 (stereo not drawn)
inactive: Test System: AMES SALMONELLA TYPHIMURIUM, Strain/Indicator: TA98, Metabolic Activation: HAMSTER, LIVER, S-9, AROCLOR 1254, Method: PREINCUBATION inactive; negative | [1] inactive; negative | Test System: AMES SALMONELLA TYPHIMURIUM, Strain/Indicator: TA98, Metabolic Activation: RAT, LIVER, S-9, AROCLOR 1254, Method: PREINCUBATION inactive; negative | Test System: AMES SALMONELLA TYPHIMURIUM, Strain/Indicator: TA1537, Metabolic Activation: HAMSTER, LIVER, S-9, AROCLOR 1254, Method: PREINCUBATION inactive; negative | Test System: AMES SALMONELLA TYPHIMURIUM, Strain/Indicator: TA1537, Metabolic Activation: NONE, Method: PREINCUBATION inactive; negative | Test System: AMES SALMONELLA TYPHIMURIUM, Strain/Indicator: TA1537, Metabolic Activation: RAT, LIVER, S-9, AROCLOR 1254, Method: PREINCUBATION inactive; negative
active: End Point: IN VITRO CHROMOSOMAL ABERRATIONS, Test System: CHL CELLS, Metabolic Activation: NONE active; positive (structural changes) | End Point: IN VITRO CHROMOSOMAL ABERRATIONS, Test System: CHL CELLS, Metabolic Activation: RAT, LIVER, S-9, SODIUM PHENOBARBITAL AND 5,6-BENZOFLAVONE active; positive (structural changes | Test System: AMES SALMONELLA TYPHIMURIUM, Strain/Indicator: TA100, Metabolic Activation: HAMSTER, LIVER, S-9, AROCLOR 1254, Method: PREINCUBATION active; positive | [2] active; positive | Test System: AMES SALMONELLA TYPHIMURIUM, Strain/Indicator: TA100, Metabolic Activation: RAT, LIVER, S-9, AROCLOR 1254, Method: PREINCUBATION active; positive | Test System: AMES SALMONELLA TYPHIMURIUM, Strain/Indicator: TA1535, Metabolic Activation: HAMSTER, LIVER, S-9, AROCLOR 1254, Method: PREINCUBATION active; positive | [3] active; positive | Test System: AMES SALMONELLA TYPHIMURIUM, Strain/Indicator: TA1535, Metabolic Activation: RAT, LIVER, S-9, AROCLOR 1254, Method: PREINCUBATION active; positive

Oc1cccc2c1[nH]c1ccccc12
active: Test System: CHINESE HAMSTER OVARY, Strain/Indicator: CHO-K1-BH4 (HGPRT)/6-THIOGUANINE, Metabolic Activation: RAT, LIVER, S-9, AROCLOR (4%) active; positive

COC(=O)C(N)Cc1ccc(Cl)cc1 (stereo not drawn)
inactive: Test System: AMES SALMONELLA TYPHIMURIUM, Strain/Indicator: TA98, Metabolic Activation: NONE inactive; negative | Test System: AMES SALMONELLA TYPHIMURIUM, Strain/Indicator: TA100, Metabolic Activation: NONE inactive; negative | Test System: AMES SALMONELLA TYPHIMURIUM, Strain/Indicator: TA1535, Metabolic Activation: NONE inactive; negative | Test System: AMES SALMONELLA TYPHIMURIUM, Strain/Indicator: TA1537, Metabolic Activation: NONE inactive; negative | Test System: E. COLI, Strain/Indicator: AB2462 UVRA, Metabolic Activation: NONE, Method: SPOT TEST inactive; negative | Test System: E. COLI, Strain/Indicator: WP6 POLA, Metabolic Activation: NONE, Method: SPOT TEST inactive; negative

CCC(C)Br (stereo not drawn)
active: Test System: AMES SALMONELLA TYPHIMURIUM, Strain/Indicator: TA100, Metabolic Activation: NONE, Method: DESICCATOR active; positive | Test System: AMES SALMONELLA TYPHIMURIUM, Strain/Indicator: TA100, Metabolic Activation: RAT, LIVER, S-9, AROCLOR 1254, Method: DESICCATOR active; positive | Test System: AMES SALMONELLA TYPHIMURIUM, Strain/Indicator: TA1535, Metabolic Activation: NONE, Method: DESICCATOR active; positive | Test System: AMES SALMONELLA TYPHIMURIUM, Strain/Indicator: TA1535, Metabolic Activation: RAT, LIVER, S-9, AROCLOR 1254, Method: DESICCATOR active; positive

Cc1cc(C)c(C)c(C)c1
inactive: Test System: AMES SALMONELLA TYPHIMURIUM, Strain/Indicator: TA97A, Metabolic Activation: RAT LIVER S-9, AROCLOR 1254, Method: STANDARD PLATE inactive; negative | [4] inactive; negative | Test System: AMES SALMONELLA TYPHIMURIUM, Strain/Indicator: TA98, Metabolic Activation: RAT LIVER S-9, AROCLOR 1254, Method: STANDARD PLATE inactive; negative | [6] inactive; negative | Test System: AMES SALMONELLA TYPHIMURIUM, Strain/Indicator: TA100, Metabolic Activation: RAT LIVER S-9, AROCLOR 1254, Method: STANDARD PLATE inactive; negative | Test System: AMES SALMONELLA TYPHIMURIUM, Strain/Indicator: TA102, Metabolic Activation: NONE, Method: STANDARD PLATE inactive; negative | Test System: AMES SALMONELLA TYPHIMURIUM, Strain/Indicator: TA102, Metabolic Activation: RAT LIVER S-9, AROCLOR 1254, Method: STANDARD PLATE inactive; negative
active: Test System: AMES SALMONELLA TYPHIMURIUM, Strain/Indicator: TA97A, Metabolic Activation: NONE, Method: STANDARD PLATE active; positive
